# Entries after “also recorded” stand apart in the source; their conditions may differ.
# Experiments:
# [1] = system: MDA-MB-231 cancer cells; test: MChip purification assay, cells loaded in middle channel, cancer cell readout; type: cell-based; settings: FMLP vs control; FIG. 14
# Protocol: (§1) WBCs and MDA-MB-231 cancer cells were mixed at a 1:1 ratio in FBS-free DMEM medium and loaded to the top edge of the middle/main channel. The positions of these cells were determined by an optimized flow rate and open/close of channel inlets/outlets. Briefly, the microfluidic device was filled with cell culture medium and incubator at 37° C. for one hour. Sealed all the inlet/outlets except cell loading inlet (middle/main channel) and channel #1 outlet (top). 50 μL cell mixture was loaded into cell loading inlet and the cell alignment was achieved using a syringe pump (5 μL/min) that connected to the channel #1 outlet (top). Then replaced the cell suspension with FBS-free medium and incubated for 30 minutes. The FBS-free medium flowed into the middle channel, the top channel (first outer channel) #1 was filled with medium containing 10% FBS, and the bottom channel (second outer channel) […] was filled with FBS-free medium containing FMLP (200 ng/mL). The flow rates for 3 channels were 0.1 μL/min. The cells were incubated at 37° C. for 24 hours.
# (§2) To retrieve the cancer cells of heterogeneously migratory properties with low WBCs contamination, the cell loading channel and “chemos” loading channel (middle, #9) were swapped: cells was loaded to the top part of the middle channel (#9) while the serum was loaded into side channels (top/bottom, #1). […]
# [2] = system: WBCs; test: MChip purification assay, cells loaded in middle channel, WBC readout; type: cell-based, human
# Protocol: as §1
# The blood sample was drawn from multiple healthy donors in compliance with the applicable federal, state, and institutional policies and procedures in the United States. Healthy human blood samples were obtained from the Clinical and Translational Research Unit of the University of Georgia with informed consent according to an IRB-approved protocol. The collected blood samples were stored in vacutainer K2-EDTA (BD, Franklin Lakes, N.J.). Complete blood count (CBC) reported was obtained to determine the number & subtypes of WBCs. The blood processing with iFCS was discussed in our previous work (Zhao, et al., Lab on a Chip 2019, 19 (10), 1860-76, incorporated by reference above).^10
# as §2
# [3] = system: MDA-MB-231 breast cancer cell line; test: MChip cancer cell migration assay, cells loaded in channel #1; type: cell-based
# Protocol: The microfluidic device was pre-filled with FBS-free cell culture medium and incubated at 37° C. for 1 hour. All of the channel inlet/outlet, except cell loading inlets (top/bottom channel #1) and middle channel outlet, are sealed with tape before cell loading. Cancer cells were collected from culture plates with 0.25% Trypsin-EDTA (ThermoFisher, Waltham, Mass.) and pelleted by centrifugation at 500 g for 5 minutes. Then, the cells were re-suspended in FBS-free culture medium, DMEM or RPMI (ThermoFisher, Waltham, Mass.), to a concentration of 5×10^5 cells/mL. 50 μL of cell suspension was pipetted into the cell loading channels. One syringe pump (Chemyx, Stafford, Tex.) was connected to the middle channel outlet and the flow rate was 5 μL/min. When all entrances of migration channels were filled with cancer cells, the pump was stopped and the cell suspension was replaced with FBS-free cell culture medium. The device was then placed in the incubator (37° C., 5% CO2) for 40 min to ensure the cell adhesion to the glass slide. Then, the tape/covers were removed from the cell loading outlet and middle inlet, and these inlets were connected with syringe pumps. The FBS-free medium flowed into the cell loading channel while the middle channel was filled with medium containing 10% FBS. The flow rates for 3 channels were 0.1 μL/min. The entire chip was placed in the cell culture incubator (37° C., 5% CO2) for about 24 hours. […]
# Since migration time^14, 21 and FBS concentration were key parameters that determined the final position of individual cells, a series experiment were conducted to test the influence of different FBS concentrations (0%, 5%, and 10%) and various working time (6 hr, 12 hr, and 24 hr). […] It is noteworthy that cell migratory behaviors were also determined by the glass coating method, for example, coating using different concentrations of collagen and poly-L-Lysine (FIG. 7). […]
# [4] = system: WBCs; test: MChip WBC migration assay, cells loaded in channel #1; type: cell-based, human
# Protocol: FIGS. 6A-6H illustrate purification of circulating tumor cells isolated from human blood using iFCS separation and an embodiment of a device of the present disclosure. FIG. 6A is images validation of combination effect of using iFCS and a device of the present disclosure with cultured cancer cells spiked into healthy blood. Left, an iFCS device was used to recover more than 99.2% spiked cancer cells and deplete many WBCs (˜500 cells per mL). Collected cancer cells and WBCs were injected into the “MChip” of the present disclosure to further purify CTC by removing most remaining WBCs based on different migratory abilities, as shown in the right image. Migratory cancer cells could be retrieved with high purity. FIG. 6B is a graph comparing migratory abilities for cells before and after iFCS processing. […] FIG. 6C illustrates WBC (n=-5000, channel #1 loading) migration assays under control (FBS only), WBC chemo-attractant (FM LP) and WBC chemo-repellent (Slit2). FBS (10%) or Slit2 (5 μg/mL) were loaded into the middle channel (channel #9), while FMLP (200 ng/mL) were filled in the […]. Only the WBCs of >200 μm Y position were counted. […] Right, images of WBCs 24-hour migration assay using Slit2 (5 μg/mL) in 10% FBS. Flow rate v=0.1 μL/min. WBCs were stained with cell tracker red. Fluorescence images were taken at 0 hour and 24 hours. Circles indicate the migratory WBCs. FIG. 6D is a graph illustrating breast cancer cells, MDA-MB-231, loaded into channel #1 with Slit2 (5 μg/mL) in 10% FBS in the middle channel. Flow rate v=0.1 μL/min. The graph indicates positions of MDA-MB-231 and the rectangular symbols indicate the mean value. FIG. 6E is an image of WBCs (red) and MDA-MB-231 (green) mixture (1:1) migration assay with middle channel (channel #9) filled with 10% FBS and Slit2 (5 μg/mL). At 24 hours, most of the migratory cancer cells moved into the migration/collection channels with ˜2 WBCs contamination. FIG. 6F illustrates a WBC migration assay using FBS, FMLP, and Slit2. WBCs (n=˜2500) loaded into the top edge of the middle channel. […]
# [5] = 1:1 mixture, 10% FBS top channel, 0% FBS middle, 0% FBS + FMLP (200 ng/mL) bottom, 24 hours
molecule,measurement,setting,value
fMet-Leu-Phe [FMLP],effect on MDA-MB-231 migration,[1],without a negative effect
same,WBCs moved to the bottom part,[2]; [5],88.3%
same,WBCs stayed in the middle loading channel,[2]; [5],11.2%
same,effect on WBC migration direction,"[2]; FMLP in bottom side channel, WBCs loaded at top edge of middle channel, FIG. 6F",attract the majority of WBCs to the bottom part; also recorded: significant performance in inducing cells toward the bottom channel
collagen,average migration distance by glass coating method,"[3]; collagen vs poly-L-Lysine coating at different concentrations, FIG. 7",largest
"slit2: Slit guidance ligand 2, chemo-repellent for WBCs, neutrophil inhibitor (protein, UniProt O94813 31-1529, looked up) Slit homolog 2 protein: QCSCSGSTVDCHGLALRSVPRNIPRNTERLDLNGNNITRITKTDFAGLRHLRVLQLMENKISTIERGAFQDLKELERLRLNRNHLQLFPELLFLGTAKLYRLDLSENQIQAIPRKAFRGAVDIKNLQLDYNQISCIEDGAFRALRDLEVLTLNNNNITRLSVASFNHMPKLRTFRLHSNNLYCDCHLAWLSDWLRQRPRVGLYTQCMGPSHLRGHNVAEVQKREFVCSGHQSFMAPSCSVLHCPAACTCSNNIVDCRGKGLTEIPTNLPETITEIRLEQNTIKVIPPGAFSPYKKLRRIDLSNNQISELAPDAFQGLRSLNSLVLYGNKITELPKSLFEGLFSLQLLLLNANKINCLRVDAFQDLHNLNLLSLYDNKLQTIAKGTFSPLRAIQTMHLAQNPFICDCHLKWLADYLHTNPIETSGARCTSPRRLANKRIGQIKSKKFRCSAKEQYFIPGTEDYRSKLSGDCFADLACPEKCRCEGTTVDCSNQKLNKIPEHIPQYTAELRLNNNEFTVLEATGIFKKLPQLRKINFSNNKITDIEEGAFEGASGVNEILLTSNRLENVQHKMFKGLESLKTLMLRSNRITCVGNDSFIGLSSVRLLSLYDNQITTVAPGAFDTLHSLSTLNLLANPFNCNCYLAWLGEWLRKKRIVTGNPRCQKPYFLKEIPIQDVAIQDFTCDDGNDDNSCSPLSRCPTECTCLDTVVRCSNKGLKVLPKGIPRDVTELYLDGNQFTLVPKELSNYKHLTLIDLSNNRISTLSNQSFSNMTQLLTLILSYNRLRCIPPRTFDGLKSLRLLSLHGNDISVVPEGAFNDLSALSHLAIGANPLYCDCNMQWLSDWVKSEYKEPGIARCAGPGEMADKLLLTTPSKKFTCQGPVDVNILAKCNPCLSNPCKNDGTCNSDPVDFYRCTCPYGFKGQDCDVPIHACISNPCKHGGTCHLKEGEEDGFWCICADGFEGENCEVNVDDCEDNDCENNSTCVDGINNYTCLCPPEYTGELCEEKLDFCAQDLNPCQHDSKCILTPKGFKCDCTPGYVGEHCDIDFDDCQDNKCKNGAHCTDAVNGYTCICPEGYSGLFCEFSPPMVLPRTSPCDNFDCQNGAQCIVRINEPICQCLPGYQGEKCEKLVSVNFINKESYLQIPSAKVRPQTNITLQIATDEDSGILLYKGDKDHIAVELYRGRVRASYDTGSHPASAIYSVETINDGNFHIVELLALDQSLSLSVDGGNPKIITNLSKQSTLNFDSPLYVGGMPGKSNVASLRQAPGQNGTSFHGCIRNLYINSELQDFQKVPMQTGILPGCEPCHKKVCAHGTCQPSSQAGFTCECQEGWMGPLCDQRTNDPCLGNKCVHGTCLPINAFSYSCKCLEGHGGVLCDEEEDLFNPCQAIKCKHGKCRLSGLGQPYCECSSGYTGDSCDREISCRGERIRDYYQKQQGYAACQTTKKVSRLECRGGCAGGQCCGPLRSKRRKYSFECTDGSSFVDEVEKVVKCGCTRCVS",cancer cells squeezed into the migration channel,"[3]; 5 μg/mL slit2 in 10% FBS in middle channel, 0.1 μL/min",85%
same,effect on migratory behavior of MDA-MB-231 cancer cells,"[3]; 5 μg/mL slit2 in 10% FBS in middle channel, P=0.004",slightly compromise
same,WBCs contamination in migration/collection channels,"[4]; WBCs and MDA-MB-231 mixture (1:1), middle channel 10% FBS and Slit2 (5 μg/mL), 24 hours",~2 WBCs
same,loaded WBCs remaining in the loading channel with non-migratory cells,[4]; middle channel 10% FBS and 5 μg/mL slit2,99.6%
same,WBCs that left the cell loading channel (#1),"[4]; middle channel loaded with 10% FBS and 5 μg/mL slit2, 24 hours, 0.1 μL/min",0.4%
